# Reference: ChEMBL document CHEMBL1201862, “PubChem BioAssay data set” (2004)
#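 Tested at 5 concentrations; 48 h exposure; 96-well plates; endpoints linearly interpolated, else capped at highest concentration. GI50 = concentration required for 50% inhibition of growth.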 Activity calls are given as the source filed them. Rule as the data show it: active = GI50 up to about 1.1 µM and inactive = higher.
# What was measured:
# Assay in all cases: growth of human tumour cells (NCI), 48 h
# [1] = system: OVCAR-8
# [2] = system: SF-295
# [3] = system: NCI-H226
# [4] = system: HCT-15
# [5] = system: OVCAR-5
# [6] = system: SW-620
# [7] = system: HCT-116
# [8] = system: EKVX
# [9] = system: SR
# [10] = system: SNB-75
# [11] = system: NCI-H522
# [12] = system: DMS-114
# [13] = system: ACHN
# [14] = system: CAKI-1
# [15] = system: HOP-92
# [16] = system: MDA-MB-435
# [17] = system: NCI/ADR-RES
# [18] = system: PC-3
# [19] = system: MDA-N
# [20] = system: BT-549
Structure (SMILES),GI50 [1],GI50 [2],GI50 [3],GI50 [4] [µM],GI50 [5],GI50 [6],GI50 [7],GI50 [8],GI50 [9],GI50 [10],GI50 [11],GI50 [12],GI50 [13],GI50 [14],GI50 [15],GI50 [16],GI50 [17],GI50 [18],GI50 [19],GI50 [20]
C=CCNC(=S)N1CC(C)C(=O)Nc2ccccc21 (configuration not stated),> 100 µM (inactive),> 100 µM (inactive),> 100 µM (inactive),> 100,> 100 µM (inactive),> 100 µM (inactive),> 100 µM (inactive),> 100 µM (inactive),> 100 µM (inactive),35.5 µM (inactive),> 100 µM (inactive),> 100 µM (inactive),> 100 µM (inactive),,,,,,,
CC1(C)C2CCC3(C2)CS(=O)(=O)N2OC231 (configuration not stated),24.8 µM (inactive),> 100 µM (inactive),,16.1,23.7 µM (inactive),16.5 µM (inactive),31.3 µM (inactive),15.7 µM (inactive),> 100 µM (inactive),17 µM (inactive),13.8 µM (inactive),12.2 µM (inactive),15.9 µM (inactive),16 µM (inactive),10.8 µM (inactive),,,,,
O=C(CSc1nnc(Cc2ccccc2)o1)Nc1ccc(Cl)cc1Cl,> 100 µM (inactive),> 100 µM (inactive),> 100 µM (inactive),> 100,> 100 µM (inactive),> 100 µM (inactive),> 100 µM (inactive),,,> 100 µM (inactive),> 100 µM (inactive),> 100 µM (inactive),> 100 µM (inactive),> 100 µM (inactive),,,,,,
CC(=O)c1c(O)c2c([nH]c1=O)CCCC2,82.2 µM (inactive),15.7 µM (inactive),,48.1,,> 100 µM (inactive),,51.1 µM (inactive),,10.6 µM (inactive),,25.4 µM (inactive),> 100 µM (inactive),> 100 µM (inactive),> 100 µM (inactive),,,,,
CN(C)c1n/c(=N/c2ccc3ccccc3c2)ss1,19.5 µM (inactive),,13.4 µM (inactive),17.3,,45.3 µM (inactive),13.8 µM (inactive),,11.6 µM (inactive),20.8 µM (inactive),7.41 µM (inactive),9.06 µM (inactive),20.6 µM (inactive),5.87 µM (inactive),,,,,,
COC(=O)C(Cc1ccccc1)NC(=O)Cn1ccnc1[N+](=O)[O-] (configuration not stated),> 100 µM (inactive),> 100 µM (inactive),34 µM (inactive),> 100,> 100 µM (inactive),> 100 µM (inactive),,> 100 µM (inactive),,94.8 µM (inactive),> 100 µM (inactive),> 100 µM (inactive),> 100 µM (inactive),> 100 µM (inactive),63.8 µM (inactive),,,,,
CCNC(=O)O/N=C1\CCC2[C@@H]3CC=C4C[C@@H](OC5CCCCO5)CC[C@]4(C)C3CC[C@]12C (some centres not stated),3.9 µM (inactive),2.17 µM (inactive),,1.63,2.48 µM (inactive),2.45 µM (inactive),4.8 µM (inactive),2.51 µM (inactive),,1.91 µM (inactive),1.51 µM (inactive),1.26 µM (inactive),1.45 µM (inactive),2.5 µM (inactive),2.48 µM (inactive),,,,,
COc1ccc(C(c2ccccc2C(=O)O)c2ccc(OC)c3ccccc23)c2ccccc12,10.5 µM (inactive),11.1 µM (inactive),20 µM (inactive),8.63,15.1 µM (inactive),14.8 µM (inactive),,20.2 µM (inactive),,,12.6 µM (inactive),7.06 µM (inactive),10.4 µM (inactive),28.8 µM (inactive),33.5 µM (inactive),,,,,
O=C(CCCCCCCCC(=O)OCC1OC(n2cnc3c(=O)[nH]cnc32)C(O)C1O)OCC1OC(n2cnc3c(=O)[nH]cnc32)C(O)C1O (configuration not stated),> 100 µM (inactive),> 100 µM (inactive),> 100 µM (inactive),> 100,> 100 µM (inactive),> 100 µM (inactive),> 100 µM (inactive),> 100 µM (inactive),,> 100 µM (inactive),> 100 µM (inactive),> 100 µM (inactive),> 100 µM (inactive),> 100 µM (inactive),> 100 µM (inactive),,,,,
N#Cc1nc(C2OC(COC(=O)c3ccccc3)C(OC(=O)c3ccccc3)C2OC(=O)c2ccccc2)oc1N (configuration not stated),46.1 µM (inactive),39.2 µM (inactive),14.2 µM (inactive),16.7,87.7 µM (inactive),12.1 µM (inactive),16.5 µM (inactive),39.5 µM (inactive),,11.3 µM (inactive),5.33 µM (inactive),28.9 µM (inactive),33.7 µM (inactive),26.5 µM (inactive),96.4 µM (inactive),,,,,
COCCCNC(=O)CC(=O)NCCCOC,> 100 µM (inactive),> 100 µM (inactive),,> 100,> 100 µM (inactive),> 100 µM (inactive),> 100 µM (inactive),> 100 µM (inactive),> 100 µM (inactive),,> 100 µM (inactive),> 100 µM (inactive),> 100 µM (inactive),,> 100 µM (inactive),,,,,
Cc1ccc([N+](=O)[O-])cc1NC(=O)/C(CC(=O)c1sc(C(N)=S)nc1C)=N\N,> 100 µM (inactive),75.7 µM (inactive),,> 100,> 100 µM (inactive),> 100 µM (inactive),71 µM (inactive),65.3 µM (inactive),88.9 µM (inactive),> 100 µM (inactive),20.9 µM (inactive),30.3 µM (inactive),96.2 µM (inactive),> 100 µM (inactive),62.8 µM (inactive),,,,,
CCN(CC)c1cccc2c1C1(O)CCC3(CC21)OCCCCO3 (configuration not stated),44.9 µM (inactive),28.8 µM (inactive),63.4 µM (inactive),66.8,> 100 µM (inactive),69.3 µM (inactive),49.3 µM (inactive),,,36.5 µM (inactive),> 100 µM (inactive),94.6 µM (inactive),91.8 µM (inactive),> 100 µM (inactive),,,,,,
N#CC1(C2CC(=O)N(c3ccccc3)C2=O)CCCCC1=O (configuration not stated),> 100 µM (inactive),> 100 µM (inactive),> 100 µM (inactive),> 100,> 100 µM (inactive),> 100 µM (inactive),,> 100 µM (inactive),> 100 µM (inactive),> 100 µM (inactive),,> 100 µM (inactive),> 100 µM (inactive),,,,,,,
COc1cc(C(=O)NO)ccc1O,> 100 µM (inactive),> 100 µM (inactive),,> 100,> 100 µM (inactive),> 100 µM (inactive),> 100 µM (inactive),> 100 µM (inactive),,> 100 µM (inactive),> 100 µM (inactive),> 100 µM (inactive),> 100 µM (inactive),,> 100 µM (inactive),,,,,
CN1CCN(CC(=O)N2CCCn3c2nc2ccccc2c3=O)CC1,> 100 µM (inactive),> 100 µM (inactive),52.1 µM (inactive),> 100,> 100 µM (inactive),> 100 µM (inactive),> 100 µM (inactive),> 100 µM (inactive),> 100 µM (inactive),> 100 µM (inactive),> 100 µM (inactive),,> 100 µM (inactive),> 100 µM (inactive),48.2 µM (inactive),> 100 µM (inactive),> 100 µM (inactive),> 100 µM (inactive),> 100 µM (inactive),> 100 µM (inactive)
Cc1ccc(S(=O)(=O)NC(CCC(=O)NNc2ccccc2)C(=O)NNc2ccccc2)cc1 (configuration not stated),6.43 µM (inactive),10.4 µM (inactive),> 100 µM (inactive),15.4,46.8 µM (inactive),6.65 µM (inactive),30.7 µM (inactive),> 100 µM (inactive),18.9 µM (inactive),> 100 µM (inactive),> 100 µM (inactive),,2.13 µM (inactive),> 100 µM (inactive),> 100 µM (inactive),> 100 µM (inactive),> 100 µM (inactive),4.14 µM (inactive),17.2 µM (inactive),> 100 µM (inactive)
CCCCCC[C@@H]1CCC2C(CO)[C@@H](O)CC[C@@H]2C1 (some centres not stated),18.2 µM (inactive),16.2 µM (inactive),20.6 µM (inactive),19,18.5 µM (inactive),23.1 µM (inactive),17.6 µM (inactive),18.2 µM (inactive),22.5 µM (inactive),22.8 µM (inactive),16.3 µM (inactive),19.6 µM (inactive),19.1 µM (inactive),> 10 µM (inactive),,,,,,
Cc1cc(-c2nc3cc(O)ccc3s2)ccc1N,47.1 µM (inactive),26 µM (inactive),31.4 µM (inactive),41.2,24.7 µM (inactive),38 µM (inactive),22.8 µM (inactive),10.2 µM (inactive),32 µM (inactive),23.7 µM (inactive),31 µM (inactive),,22.5 µM (inactive),34 µM (inactive),76.4 µM (inactive),33.3 µM (inactive),38.1 µM (inactive),30.1 µM (inactive),29.4 µM (inactive),45.8 µM (inactive)
CC(C)N1CCN(c2ccc(OCC3COC(Cn4cncn4)(c4ccc(Cl)cc4Cl)O3)cc2)CC1 (configuration not stated) [TERCONAZOLE],17.3 µM (inactive),12.8 µM (inactive),15 µM (inactive),9.53,15 µM (inactive),15.3 µM (inactive),11.2 µM (inactive),15.1 µM (inactive),3.33 µM (inactive),12.8 µM (inactive),15.2 µM (inactive),,20.6 µM (inactive),17.3 µM (inactive),13.6 µM (inactive),4.97 µM (inactive),16.7 µM (inactive),14.6 µM (inactive),4.86 µM (inactive),14.4 µM (inactive)
